Data as given in patent publication US20130165625A1, “PEPTIDES INCORPORATING 3-AMINOADAMANTANE CARBOXYLIC ACIDS ENHANCE SYNAPTIC PLASTICITY AND ACT AS NEUROGENIC AGENTS” (JUSTUS-LIEBIG-UNIVERSITAT GIESSEN, priority 2010, published 2013).
Residues, ends and D or L forms follow the SMILES beside them.

How the values were obtained:
synaptophysin = assay: Expression of synaptophysin in DG (immunohistochemistry, mean optical density); type: in vivo, mice; settings: FIG. 3A; p<0.001; s.c. pellets 25 nmol/day
Protocol: (§1) All in vivo studies for characterization of peptides (stereology and behavioral analysis) were performed on 8-10-month-old female retired breeders of C57BI6 background. Animals were acclimatized for at least 3 weeks to exclude occasional pregnant mice from the studies. Mice were group-housed (3 animals per cage) with a 12:12 hours light/dark cycle and with free access to food and water. All procedures were conducted in accordance with approved protocols from our institutional Animal Welfare Committee. […]
(§2) At the end of the behavioral experiment, animals were anesthetized with an overdose of sodium pentobarbital (50 mg/kg) and transcardially perfused with 0.1 M phosphate buffered saline (PBS). […] Neurogenesis in the dentate gyrus was evaluated by counting the number of BrdU-positive and BrdU/NeuN-double-positive cells in the dentate gyrus (DG). The number of positive cells was determined in every fifth section in a series of 40 μm sagittal sections throughout the DG using unbiased sterology (West et al., 1991). All BrdU-positive cells in the subgranular zone (SGZ) and granule cell layer (GCL) were counted using a fluorescent microscope (Nikon Eclipse 90i, Nikon Corporation, Japan). Double labeled cells were assessed by a confocal imaging system (D-Eclipse C1, Nikon Corporation). […] For each brain, at least 100 cells were counted based on coefficient of error determinations. […]

[1] = system: BrdU-positive and BrdU/NeuN-double-positive cells in the dentate gyrus; assay: Neurogenesis in the dentate gyrus (BrdU / NeuN immunohistochemistry, unbiased stereology); type: in vivo, mice; settings: p<0.05, s.c. pellets 25 nmol/day
Protocol: (§3) All in vivo studies for characterization of peptides (stereology and behavioral analysis) were performed on 8-10-month-old female retired breeders of C57BI6 background. Animals were acclimatized for at least 3 weeks to exclude occasional pregnant mice from the studies. Mice were group-housed (3 animals per cage) with a 12:12 hours light/dark cycle and with free access to food and water. All procedures were conducted in accordance with approved protocols from our institutional Animal Welfare Committee. For the peptide treatment, mice (8 animals/group) received subcutaneous implants of long term continuous release depot pellets containing Peptide021 or Peptide022 at 25 nmol/day for 35 days of continuous dosing (Innovative Research of America, Sarasota, Fla.). For the control group (8 animals), pellets consisted of the carrier polymer only. Mice were anesthetized with 2.5% Avertin (0.38 ml for a 25 g animal). Under sterile conditions, pellets were implanted subcutaneously along the anterolateral aspect of the right shoulder with a precision trochar (Innovative Research of America, Sarasota, Fla.). After recovery of anesthesia, animals were transferred to the animal colony. […] To investigate neurogenesis, BrdU (Sigma, St. Louis, Mo.) was given as two daily i.p. injections (100 mg/kg/dose) for five days starting on day 2 of peptides treatment.
At the end of the behavioral experiment, animals were anesthetized with an overdose of sodium pentobarbital (50 mg/kg) and transcardially perfused with 0.1 M phosphate buffered saline (PBS). After perfusion, the brains were removed from the skull, the left hemisphere was immediately frozen for future biochemical analysis and the right hemisphere was immersion fixed in 4% paraformaldehyde in 0.1 M PBS for at least 24 hours at room temperature. Tissues were equilibrated and stored in 30% sucrose solution at 4° C. until sectioning. The brains were sectioned sagittaly on a freezing sliding microtome at 40 μm through the entire hippocampus and the sections were stored in glycol anti-freeze solution (Ethylene glycol, glycerol and 0.1 M PBS in 3:3:4 ratio) at −20° C. until further processing. For double labeling of BrdU and NeuN, brain sections were pretreated with 2 M HCl at 37° C. for 30 min and neutralized with 0.1 M borate buffer (pH 8.5) for 10 minutes. Tissue sections were incubated first for 30 min with blocking buffer (4% normal goat serum +0.1% Tween-20 in PBS) and then overnight at 4° C. in the presence of BrdU (Millipore Corporation, Billerica, Mass.) and NeuN (Millipore Corporation) antibodies diluted 1:400 and 1:100, respectively. […] Neurogenesis in the dentate gyrus was evaluated by counting the number of BrdU-positive and BrdU/NeuN-double-positive cells in the dentate gyrus (DG). The number of positive cells was determined in every fifth section in a series of 40 μm sagittal sections throughout the DG using unbiased sterology (West et al., 1991). All BrdU-positive cells in the subgranular zone (SGZ) and granule cell layer (GCL) were counted using a fluorescent microscope (Nikon Eclipse 90i, Nikon Corporation, Japan). Double labeled cells were assessed by a confocal imaging system (D-Eclipse C1, Nikon Corporation). […] For each brain, at least 100 cells were counted based on coefficient of error determinations. […]

mice [2] = assay: One-trial object recognition test; type: in vivo; settings: FIG. 1E-F; p<0.05, Student t-test; s.c. pellets 25 nmol/day
Protocol: All in vivo studies for characterization of peptides (stereology and behavioral analysis) were performed on 8-10-month-old female retired breeders of C57BI6 background. Animals were acclimatized for at least 3 weeks to exclude occasional pregnant mice from the studies. Mice were group-housed (3 animals per cage) with a 12:12 hours light/dark cycle and with free access to food and water. All procedures were conducted in accordance with approved protocols from our institutional Animal Welfare Committee. For the peptide treatment, mice (8 animals/group) received subcutaneous implants of long term continuous release depot pellets containing Peptide021 or Peptide022 at 25 nmol/day for 35 days of continuous dosing (Innovative Research of America, Sarasota, Fla.). For the control group (8 animals), pellets consisted of the carrier polymer only. Mice were anesthetized with 2.5% Avertin (0.38 ml for a 25 g animal). […]
In the one-trial object recognition task, animals are exposed to two different objects which they have to identify as novel or familiar based on the memory of an earlier experience with one of the two objects they encountered in the same open field. […] Object discrimination (OD) during the test phase was evaluated as […]

[3] = General examination: body weight and physical state during peptide treatment; type: in vivo, mice; settings: s.c. depot pellets 25 nmol/day for 35 days; for effect on body weight: FIG. 1A, female C57BI6 mice
Protocol: as §3
The physical state and condition of animals were carefully monitored throughout the treatment by evaluating grooming, physical state and clasping reflex. Body weight was also recorded.

mice [4] = assay: Spatial reference memory task in the water maze; type: in vivo; settings: for effect on swim speed: FIG. 1D, water maze, s.c. pellets 25 nmol/day for 35 days; for performance in the learning of spatial memory task in water maze: FIG. 1G, p<0.001, two-way ANOVA, s.c. pellets 25 nmol/day
Protocol: as §3
Spatial reference learning and memory were evaluated in the water maze using a procedure adapted from that previously described by Morris et al. (1982). The test required that mice used a spatial navigational strategy based on a spatial representation of the environment to find a fixed submerged escape platform. The procedure was performed in a 180 cm diameter circular tank. The pool was filled with water (21±1)° C. made opaque by adding white non-toxic paint. Acquisition started with the escape platform (15 cm diameter submerged 1 cm below water surface) in the Northwest quadrant and each animal was given 90 s to find the platform. […] At the end of each trial, the mouse was left on the platform for 20 s, then dried and returned to its home cage until the next trial. Five such acquisition trials were given on each day for four consecutive days. A test for retention, or probe trial (PT), was given 24 hours later. During the probe trial the mouse was allowed to swim in the tank without the escape platform for 60 seconds. This was followed by second and third probe trials 15 and 30 days after the first probe trial. The measures of learning were the time and distance covered to reach the escape platform. For the probe trial, the tank was divided into four imaginary quadrants and a small zone where the escape platform had been. The measures of retention were calculated index as the ratio of time spent or distance covered in target quadrant over them in the three other quadrants. Mouse behavior in the water maze was monitored by a Samsung Digital Camera (SDC 4304) mounted to the ceiling and tracked and timed by a SMART (Pan Lab/San Diego Instruments) version 2.0.14 software. Immunohistochemistry

[5] = system: LIF-induced STAT3 phosphorylation at Tyr705; assay: Analysis of STAT3 phosphorylation in HepG2 cells; type: cell-based, human; settings: FIG. 4, different peptide concentrations with 0.25 nM LIF for 15 min, Western blot
Protocol: To investigate the molecular mechanism of action of Peptide021 in LIF signaling, HepG2 human hepatoma cell (ATCC, Manassas, Va.) at 80% confluence were treated with different concentrations of Peptide021 and with 0.25 nM LIF (Chemicon International Inc., Temecula, Calif.) for 15 min. The cells were lysed and subjected to Western blots developed with antibodies anti-phospho-Tyr 705 STAT3 and anti-STAT3 (Cell signaling Technology, Danvers, Mass.).
HepG2 cells were treated with different concentrations of Peptide 021 together with 0.25 nM LIF for 15 min, and then the STAT3 phosphorylation at Tyr705 (pY-STAT3) was determined by Western blots. The pY-STAT3 value was normalized to total STAT3 expression. Data are presented as percentages of the value from cells treated with 0.25 nM LIF alone (100%). *p<0.01.

synapsin I = assay: Expression of synapsin I in DG (immunohistochemistry, mean optical density); type: in vivo, mice; settings: FIG. 3B; p<0.001; s.c. pellets 25 nmol/day
Protocol: as §1, §2

mice [6] = assay: Open field familiarization session (locomotor/exploratory activity and anxiety); type: in vivo; settings: for anxiety level of mice: FIG. 1B, time in centre of arena, first 5 minutes, s.c. pellets 25 nmol/day; for effect on exploratory activity: FIG. 1C, open field, s.c. pellets 25 nmol/day for 35 days
Protocol: as §3
In the one-trial object recognition task, animals are exposed to two different objects which they have to identify as novel or familiar based on the memory of an earlier experience with one of the two objects they encountered in the same open field. The familiar object is explored shorter than the novel encountered one because the representation of the former is still available in memory. The one-trial object recognition task tests some aspects of episodic memory but is limited to memory of an object (what), the location of an object (where), and the context in which is was encountered (which). However, the temporal dimension of the episode remains inaccessible to the experimentator, and because of this reason this task in animals is considered a test of short term memory (Ennaceur, 2010). The test used was an adaptation of the procedure previously described by Sargolini and collaborators (2003). The testing apparatus was a classic open field (i.e. a PVC square arena, 50×50 cm, with walls 40 cm high). The open field was placed in a part of the room separated from the experimentator with a black opaque curtain. The open field was surmounted by a video camera connected to a computer. Three objects were employed in this task. The general procedure consisted of three different phases: a familiarization phase (one session of 20 min), a sample phase, and a test phase. […] Object discrimination (OD) during the test phase was evaluated as […]

SMILES	expression of synaptophysin in the DG (synaptophysin)	numbers of BrdU positive cells in the GCL ([1]; FIG. 2B)	numbers of BrdU positive cells in the SGZ ([1]; FIG. 2B)	numbers of BrdU positive cells in the total DG ([1]; FIG. 2B)	number of BrdU/NeuN positive cells in the GCL ([1]; FIG. 2C)	number of BrdU/NeuN positive cells in the total DG ([1]; FIG. 2C)	ability to discriminate a new object versus a familiar object (mice [2])	effect on body weight [3]	complications associated with the implantation and treatment [3]	effect on swim speed (mice [4])	performance in the learning of spatial memory task in water maze (mice [4])	effect in second probe trial (PT2) (mice [4]; FIG. 1H, after 15 days of the end of treatment)	effect in third probe trial (PT3) (mice [4]; FIG. 1H, after 30 days of the end of treatment)	performances in the first probe trial (mice [4]; FIG. 1H, probe trial 24 hours after acquisition, p<0.05)	LIF-induced STAT3 phosphorylation (pY-STAT3 normalized to total STAT3) [5]	expression of synapsin I in the DG (synapsin I)	anxiety level of mice (mice [6])	effect on exploratory activity (mice [6])
CC(=O)N[C@@H](CC(=O)O)C(=O)NCC(=O)NCC(=O)N[C@@H](CC(C)C)C(=O)N[C@]12CC3CC(C1)C[C@@](C(N)=O)(C3)C2 [Peptide 021, Ac-Asp-Gly-Gly-Leu-^AGly-NH2] (HELM PEPTIDE1{[ac].D.G.G.L.[NC(=O)[C@]12CC3CC(C[C@](N[*:1])(C3)C1)C2]}$$$$V2.0)	significantly promoted	significantly increased	significantly increased	significantly increased	significantly increased	significantly increased	significantly improved	did not induce any effect	No complications	did not induce any effect	increased performance	no longer effect	no longer effect	improved performances	Inhibition	significantly promoted	reduced	did not induce any effect
CC(C)C[C@H](NC(=O)CNC(=O)CNC(=O)[C@H](CC(=O)O)NC(=O)C12CC3CC(CC(C3)C1)C2)C(=O)NC12CC3CC(C1)CC(C(N)=O)(C3)C2 [Peptide 022, 1-AdCO-DGGL^AG-NH2] (HELM PEPTIDE1{[O=C(C12CC3CC(CC(C3)C1)C2)[*:2]].D.G.G.L.[NC(=O)C12CC3CC(CC(N[*:1])(C3)C1)C2]}$$$$V2.0)	–	–	–	–	–	–	–	did not induce any effect	No complications	did not induce any effect	increased performance	–	–	–	–	–	reduced	did not induce any effect
